Laboratory results reported in ChEMBL document CHEMBL2040781, “Design, synthesis, and biological evaluation of chromone-based p38 MAP kinase inhibitors” (J Med Chem, 2011).
Activity calls are given as the source filed them. The rule behind the calls is not given here.

How the values were obtained:
[1] = molecular target: Casein kinase II subunit alpha' (Homo sapiens) (UniProt P19784); experiment: Inhibition of human CK2alpha2 assessed as remaining activity at 0.8 uM after 40 mins by scintillation counting
[2] = molecular target: Mitogen-activated protein kinase kinase kinase 5 (Homo sapiens) (UniProt Q99683); experiment: Inhibition of human ASK1 assessed as remaining activity at 0.8 uM after 40 mins by scintillation counting
[3] = molecular target: Mitogen-activated protein kinase 8 (Homo sapiens) (UniProt P45983); experiment: Inhibition of human JNK1alpha1 assessed as remaining activity at 0.8 uM after 40 mins by scintillation counting
[4] = molecular target: Mitogen-activated protein kinase 1 (Homo sapiens) (UniProt P28482); experiment: Inhibition of human MAPK1 assessed as remaining activity at 0.8 uM after 40 mins by scintillation counting
[5] = molecular target: Protein kinase C alpha type (Homo sapiens) (UniProt P17252); experiment: Inhibition of human PKCalpha assessed as remaining activity at 0.8 uM after 40 mins by scintillation counting
[6] = molecular target: Serine/threonine-protein kinase pim-1 (Homo sapiens) (UniProt P11309); experiment: Inhibition of human Pim-1 assessed as remaining activity at 0.8 uM after 40 mins by scintillation counting
[7] = molecular target: Dual specificity mitogen-activated protein kinase kinase 1 (Homo sapiens) (UniProt Q02750); experiment: Inhibition of human MEK1 assessed as remaining activity at 0.8 uM after 40 mins by scintillation counting
[8] = molecular target: Mitogen-activated protein kinase kinase kinase 7 (TAK1) (Homo sapiens) (UniProt O43318); experiment: Inhibition of human TAK1 assessed as remaining activity at 0.8 uM after 40 mins by scintillation counting
[9] = molecular target: Cyclin-dependent kinase 1/cyclin B1 (Homo sapiens) (UniProt P06493+P14635); experiment: Inhibition of human CDK1/cyclinB assessed as remaining activity at 0.8 uM after 40 mins by scintillation counting; type: protein-complex assay
[10] = molecular target: Mitogen-activated protein kinase kinase kinase 9 (Homo sapiens) (UniProt P80192); experiment: Inhibition of human MLK1 assessed as remaining activity at 0.8 uM after 40 mins by scintillation counting
[11] = molecular target: Serine/threonine-protein kinase 10 (Homo sapiens) (UniProt O94804); experiment: Inhibition of human LOK assessed as remaining activity at 0.8 uM after 40 mins by scintillation counting
[12] = molecular target: Serine/threonine-protein kinase PAK 2 (Homo sapiens) (UniProt Q13177); experiment: Inhibition of human PAK2 assessed as remaining activity at 0.8 uM after 40 mins by scintillation counting
[13] = molecular target: Cyclin-dependent kinase 2/cyclin A (Homo sapiens) (UniProt P24941+P20248+P78396); experiment: Inhibition of human CDK2/cyclinA assessed as remaining activity at 0.8 uM after 40 mins by scintillation counting; type: protein-complex assay
[14] = molecular target: Mitogen-activated protein kinase 14 (Homo sapiens, UniProt Q16539); experiment: Inhibition of human SAPK2a assessed as remaining activity at 0.8 uM after 40 mins by scintillation counting
MCF7 = experiment: Antiproliferative activity against human MCF7 cells at 1 uM after 4 hrs by prestoblue cell viability assay; type: functional, cell-based
[15] = molecular target: Tyrosine-protein kinase receptor TYRO3 (Homo sapiens) (UniProt Q06418); experiment: Inhibition of human Rse assessed as remaining activity at 0.8 uM after 40 mins by scintillation counting
[16] = molecular target: Protein kinase C theta type (Homo sapiens) (UniProt Q04759); experiment: Inhibition of human PKCtheta assessed as remaining activity at 0.8 uM after 40 mins by scintillation counting
[17] = molecular target: Interleukin-1 receptor-associated kinase 4 (Homo sapiens) (UniProt Q9NWZ3); experiment: Inhibition of human IRAK4 assessed as remaining activity at 0.8 uM after 40 mins by scintillation counting
[18] = molecular target: Aurora kinase A (Homo sapiens) (UniProt O14965); experiment: Inhibition of human Aurora-A assessed as remaining activity at 0.8 uM after 40 mins by scintillation counting
[19] = molecular target: Mitogen-activated protein kinase 9 (Homo sapiens) (UniProt P45984); experiment: Inhibition of human JNK2alpha2 assessed as remaining activity at 0.8 uM after 40 mins by scintillation counting
[20] = molecular target: Mitogen-activated protein kinase 11 (Homo sapiens) (UniProt Q15759); experiment: Inhibition of human SAPK2b assessed as remaining activity at 0.8 uM after 40 mins by scintillation counting
[21] = molecular target: Eukaryotic elongation factor 2 kinase (Homo sapiens) (UniProt O00418); experiment: Inhibition of human eEF-2K assessed as remaining activity at 0.8 uM after 40 mins by scintillation counting
[22] = molecular target: Serine/threonine-protein kinase 17A (Homo sapiens) (UniProt Q9UEE5); experiment: Inhibition of human DRAK1 assessed as remaining activity at 0.8 uM after 40 mins by scintillation counting
[23] = molecular target: Ribosomal protein S6 kinase beta-1 (Homo sapiens) (UniProt P23443); experiment: Inhibition of human p70S6K assessed as remaining activity at 0.8 uM after 40 mins by scintillation counting
[24] = molecular target: cGMP-dependent protein kinase 1 (Homo sapiens) (UniProt Q13976); experiment: Inhibition of human PKG1alpha assessed as remaining activity at 0.8 uM after 40 mins by scintillation counting
Homo sapiens = organism: Homo sapiens; experiment: Inhibition of human PKA assessed as remaining activity at 0.8 uM after 40 mins by scintillation counting
[25] = molecular target: Tyrosine-protein kinase Fyn (Homo sapiens) (UniProt P06241); experiment: Inhibition of human Fyn assessed as remaining activity at 0.8 uM after 40 mins by scintillation counting
[26] = molecular target: Insulin-like growth factor 1 receptor (Homo sapiens) (UniProt P08069); experiment: Inhibition of human IGF-1R assessed as remaining activity at 0.8 uM after 40 mins by scintillation counting
[27] = molecular target: Epidermal growth factor receptor (Homo sapiens) (UniProt P00533); experiment: Inhibition of human EGFR assessed as remaining activity at 0.8 uM after 40 mins by scintillation counting
[28] = molecular target: Serine/threonine-protein kinase 4 (Homo sapiens) (UniProt Q13043); experiment: Inhibition of human MST1 assessed as remaining activity at 0.8 uM after 40 mins by scintillation counting
[29] = molecular target: Platelet-derived growth factor receptor beta (Homo sapiens) (UniProt P09619); experiment: Inhibition of human PDGFRbeta assessed as remaining activity at 0.8 uM after 40 mins by scintillation counting
MDA-MB-436 = experiment: Potentiation of doxorubicin-mediated cytotoxicity in p53-deficient human MDA-MB-436 cells at 1 uM after 4 hrs by prestoblue cell viability assay; type: functional, cell-based
[30] = molecular target: Mitogen-activated protein kinase 13 (Homo sapiens) (UniProt O15264); experiment: Inhibition of human SAPK4 assessed as remaining activity at 0.8 uM after 40 mins by scintillation counting
[31] = molecular target: Ribosomal protein S6 kinase alpha-1 (Homo sapiens) (UniProt Q15418); experiment: Inhibition of human Rsk1 assessed as remaining activity at 0.8 uM after 40 mins by scintillation counting
[32] = molecular target: Tyrosine-protein kinase JAK2 (Homo sapiens) (UniProt O60674); experiment: Inhibition of human JAK2 assessed as remaining activity at 0.8 uM after 40 mins by scintillation counting

Chain of Aurora kinase A (Homo sapiens) (O14965 whole entry): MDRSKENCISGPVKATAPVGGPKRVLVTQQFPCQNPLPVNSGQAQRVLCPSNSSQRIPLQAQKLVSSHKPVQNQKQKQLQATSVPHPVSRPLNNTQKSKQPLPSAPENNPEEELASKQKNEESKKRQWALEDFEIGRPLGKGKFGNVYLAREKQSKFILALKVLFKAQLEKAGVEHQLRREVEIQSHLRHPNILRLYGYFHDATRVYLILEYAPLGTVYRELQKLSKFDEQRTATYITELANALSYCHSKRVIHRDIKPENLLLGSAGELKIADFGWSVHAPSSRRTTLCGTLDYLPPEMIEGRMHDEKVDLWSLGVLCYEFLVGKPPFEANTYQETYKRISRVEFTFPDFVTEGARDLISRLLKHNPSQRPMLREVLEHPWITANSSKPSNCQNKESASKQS
Chain of Ribosomal protein S6 kinase alpha-1 (Homo sapiens) (Q15418 whole entry): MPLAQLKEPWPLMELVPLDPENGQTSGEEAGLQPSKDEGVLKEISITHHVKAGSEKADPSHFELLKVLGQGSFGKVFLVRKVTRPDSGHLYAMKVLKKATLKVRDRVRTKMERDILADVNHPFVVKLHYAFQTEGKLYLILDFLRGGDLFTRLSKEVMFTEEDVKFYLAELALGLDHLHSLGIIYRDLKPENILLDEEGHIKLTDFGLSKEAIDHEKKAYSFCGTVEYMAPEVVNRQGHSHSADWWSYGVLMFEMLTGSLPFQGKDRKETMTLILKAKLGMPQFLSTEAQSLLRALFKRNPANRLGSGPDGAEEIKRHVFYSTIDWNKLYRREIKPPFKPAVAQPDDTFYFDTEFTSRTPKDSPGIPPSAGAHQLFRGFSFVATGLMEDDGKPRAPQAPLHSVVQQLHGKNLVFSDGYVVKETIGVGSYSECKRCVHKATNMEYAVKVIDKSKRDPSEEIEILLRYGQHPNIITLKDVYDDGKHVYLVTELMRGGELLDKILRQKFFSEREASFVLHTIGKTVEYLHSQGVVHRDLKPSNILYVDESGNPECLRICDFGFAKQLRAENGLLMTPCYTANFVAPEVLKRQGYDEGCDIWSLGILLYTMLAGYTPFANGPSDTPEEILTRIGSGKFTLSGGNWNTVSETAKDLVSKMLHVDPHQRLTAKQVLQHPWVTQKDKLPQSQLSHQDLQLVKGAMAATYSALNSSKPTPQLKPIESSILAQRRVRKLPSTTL
Chain of Serine/threonine-protein kinase PAK 2 (Homo sapiens) (Q13177 whole entry): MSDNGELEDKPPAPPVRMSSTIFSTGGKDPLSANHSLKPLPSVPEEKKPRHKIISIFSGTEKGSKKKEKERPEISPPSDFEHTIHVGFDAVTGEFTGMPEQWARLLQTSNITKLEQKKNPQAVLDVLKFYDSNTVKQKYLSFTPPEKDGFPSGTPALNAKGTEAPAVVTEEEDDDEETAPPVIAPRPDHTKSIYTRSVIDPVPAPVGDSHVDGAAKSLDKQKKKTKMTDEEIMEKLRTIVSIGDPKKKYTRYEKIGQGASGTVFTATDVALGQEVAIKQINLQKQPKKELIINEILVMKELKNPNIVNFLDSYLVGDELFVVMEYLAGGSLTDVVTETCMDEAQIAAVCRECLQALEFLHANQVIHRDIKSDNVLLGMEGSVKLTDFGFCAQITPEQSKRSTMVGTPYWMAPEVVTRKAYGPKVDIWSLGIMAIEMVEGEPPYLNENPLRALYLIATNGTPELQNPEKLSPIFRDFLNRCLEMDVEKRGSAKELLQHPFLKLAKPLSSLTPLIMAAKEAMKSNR
Chain of Serine/threonine-protein kinase 17A (Homo sapiens) (Q9UEE5 whole entry): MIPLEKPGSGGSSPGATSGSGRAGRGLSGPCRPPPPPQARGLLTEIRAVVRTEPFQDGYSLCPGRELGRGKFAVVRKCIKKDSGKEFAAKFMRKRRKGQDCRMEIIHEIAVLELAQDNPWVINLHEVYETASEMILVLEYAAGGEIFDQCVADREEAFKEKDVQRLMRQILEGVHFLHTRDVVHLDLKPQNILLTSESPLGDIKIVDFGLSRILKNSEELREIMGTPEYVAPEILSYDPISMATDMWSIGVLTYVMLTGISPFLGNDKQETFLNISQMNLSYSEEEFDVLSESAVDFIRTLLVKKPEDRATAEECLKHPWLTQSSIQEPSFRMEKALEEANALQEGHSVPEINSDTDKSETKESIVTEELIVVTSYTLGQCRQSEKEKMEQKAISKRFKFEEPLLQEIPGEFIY
Chain of Serine/threonine-protein kinase 10 (Homo sapiens) (O94804 whole entry, looked up): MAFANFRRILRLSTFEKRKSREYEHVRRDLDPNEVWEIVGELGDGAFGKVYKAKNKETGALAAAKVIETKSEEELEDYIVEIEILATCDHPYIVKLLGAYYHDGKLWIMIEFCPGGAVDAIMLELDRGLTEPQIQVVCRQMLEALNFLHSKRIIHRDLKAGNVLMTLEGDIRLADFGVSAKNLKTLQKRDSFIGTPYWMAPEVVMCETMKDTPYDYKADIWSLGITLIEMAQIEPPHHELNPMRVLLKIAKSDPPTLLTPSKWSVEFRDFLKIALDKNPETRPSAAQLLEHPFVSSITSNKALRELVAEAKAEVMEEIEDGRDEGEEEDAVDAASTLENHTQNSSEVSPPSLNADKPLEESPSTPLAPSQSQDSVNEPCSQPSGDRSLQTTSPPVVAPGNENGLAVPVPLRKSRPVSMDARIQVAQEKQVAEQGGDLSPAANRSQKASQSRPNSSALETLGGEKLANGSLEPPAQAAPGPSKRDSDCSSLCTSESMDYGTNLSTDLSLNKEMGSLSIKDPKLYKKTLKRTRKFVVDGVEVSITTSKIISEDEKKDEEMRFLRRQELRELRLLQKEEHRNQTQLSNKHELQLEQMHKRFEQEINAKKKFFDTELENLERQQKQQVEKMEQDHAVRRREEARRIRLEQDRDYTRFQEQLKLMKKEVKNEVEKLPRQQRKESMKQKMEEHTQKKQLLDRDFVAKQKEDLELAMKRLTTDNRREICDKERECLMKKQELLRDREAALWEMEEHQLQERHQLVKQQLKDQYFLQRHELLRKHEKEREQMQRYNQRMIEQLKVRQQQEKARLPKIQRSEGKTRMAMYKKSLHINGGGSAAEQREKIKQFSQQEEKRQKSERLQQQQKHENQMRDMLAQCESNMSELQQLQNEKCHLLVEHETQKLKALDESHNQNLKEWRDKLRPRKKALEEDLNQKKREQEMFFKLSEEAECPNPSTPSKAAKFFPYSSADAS
Chain of Mitogen-activated protein kinase 13 (Homo sapiens) (O15264 whole entry): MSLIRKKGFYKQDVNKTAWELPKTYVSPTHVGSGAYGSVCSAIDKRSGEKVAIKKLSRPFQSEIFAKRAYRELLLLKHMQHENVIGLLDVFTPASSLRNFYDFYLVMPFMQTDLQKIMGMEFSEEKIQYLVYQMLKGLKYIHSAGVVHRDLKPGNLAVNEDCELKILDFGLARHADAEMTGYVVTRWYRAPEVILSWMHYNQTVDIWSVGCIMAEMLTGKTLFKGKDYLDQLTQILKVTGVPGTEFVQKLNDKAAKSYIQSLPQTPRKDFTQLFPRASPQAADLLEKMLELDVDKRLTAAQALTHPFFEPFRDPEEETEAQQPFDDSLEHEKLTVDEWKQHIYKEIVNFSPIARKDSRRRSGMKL
Chain of Platelet-derived growth factor receptor beta (Homo sapiens) (P09619 whole entry): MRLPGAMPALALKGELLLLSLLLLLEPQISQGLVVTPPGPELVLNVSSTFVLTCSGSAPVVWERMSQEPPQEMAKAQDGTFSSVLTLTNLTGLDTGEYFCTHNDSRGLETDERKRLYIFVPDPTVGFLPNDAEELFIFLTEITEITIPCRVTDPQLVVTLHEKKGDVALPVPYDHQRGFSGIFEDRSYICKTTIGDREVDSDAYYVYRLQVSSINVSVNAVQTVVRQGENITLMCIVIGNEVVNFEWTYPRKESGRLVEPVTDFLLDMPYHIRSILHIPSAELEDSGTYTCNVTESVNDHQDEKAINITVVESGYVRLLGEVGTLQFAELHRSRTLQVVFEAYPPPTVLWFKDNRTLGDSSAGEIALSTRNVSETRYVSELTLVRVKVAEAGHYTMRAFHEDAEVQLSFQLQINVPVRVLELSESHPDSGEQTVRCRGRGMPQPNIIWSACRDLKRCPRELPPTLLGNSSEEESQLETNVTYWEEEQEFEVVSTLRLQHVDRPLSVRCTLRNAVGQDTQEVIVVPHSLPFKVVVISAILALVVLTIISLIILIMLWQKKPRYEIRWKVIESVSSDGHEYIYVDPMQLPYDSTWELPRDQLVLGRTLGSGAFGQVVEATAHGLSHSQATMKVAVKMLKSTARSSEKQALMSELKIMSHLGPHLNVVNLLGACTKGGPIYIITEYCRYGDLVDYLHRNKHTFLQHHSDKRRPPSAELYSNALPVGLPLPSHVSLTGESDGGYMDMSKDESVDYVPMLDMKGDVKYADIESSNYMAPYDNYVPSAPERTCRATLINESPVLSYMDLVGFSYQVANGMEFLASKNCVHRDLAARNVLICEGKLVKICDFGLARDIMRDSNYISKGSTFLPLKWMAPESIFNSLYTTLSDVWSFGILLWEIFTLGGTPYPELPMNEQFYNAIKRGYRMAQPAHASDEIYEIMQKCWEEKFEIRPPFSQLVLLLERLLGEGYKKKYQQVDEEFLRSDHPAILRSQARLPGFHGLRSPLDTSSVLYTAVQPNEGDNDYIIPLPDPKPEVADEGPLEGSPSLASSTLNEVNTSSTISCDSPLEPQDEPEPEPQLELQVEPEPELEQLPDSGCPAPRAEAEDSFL
Chain of Tyrosine-protein kinase Fyn (Homo sapiens) (P06241 2-537 limits assumed): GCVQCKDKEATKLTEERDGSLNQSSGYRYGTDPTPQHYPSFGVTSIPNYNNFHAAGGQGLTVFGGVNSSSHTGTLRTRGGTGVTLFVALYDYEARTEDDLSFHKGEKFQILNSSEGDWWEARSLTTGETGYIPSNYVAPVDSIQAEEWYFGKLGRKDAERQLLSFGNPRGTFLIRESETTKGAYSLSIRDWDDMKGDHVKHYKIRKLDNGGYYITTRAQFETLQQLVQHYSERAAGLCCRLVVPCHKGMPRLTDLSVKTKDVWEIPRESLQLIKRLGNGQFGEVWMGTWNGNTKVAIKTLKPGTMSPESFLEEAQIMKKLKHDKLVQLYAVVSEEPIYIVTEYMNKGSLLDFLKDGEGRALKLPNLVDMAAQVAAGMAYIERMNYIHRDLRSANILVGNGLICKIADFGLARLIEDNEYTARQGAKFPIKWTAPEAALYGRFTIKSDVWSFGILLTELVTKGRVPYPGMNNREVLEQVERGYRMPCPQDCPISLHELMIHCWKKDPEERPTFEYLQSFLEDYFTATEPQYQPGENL

Row | SMILES | Activity [1] [%] | Activity [2] [%] | Activity [3] [%] | Activity [4] [%] | Activity [5] [%] | Activity [6] [%] | Activity [7] [%] | Activity [8] [%] | Activity [9] [%] | Activity [10] [%] | Activity [11] [%] | Activity [12] [%] | Activity [13] [%] | Activity [14] [%] | Activity (MCF7) | Activity [15] [%] | Activity [16] [%] | Activity [17] [%] | Activity [18] [%] | Activity [19] [%] | further results
1 | O=c1c(-c2ccc(F)cc2)c(-c2ccnc(NC3CCCCC3)c2)oc2ccccc12 | 104 | 102 | 96 | 87 | 102 | 97 | 104 | 103 | 93 | 101 | 94 | 104 | 101 | -1 | inactive | 91 | 102 | 95 | 107 | 71 | Activity [20]: 9%; Activity [21]: 101%; Activity [22]: 111%; Activity [23]: 102%; Activity [24]: 102%; Activity (Homo sapiens): 118%; Activity [25]: 103%; Activity [26]: 100%; Activity [27]: 114%; Activity [28]: 93%; Activity [29]: 105%; Activity (MDA-MB-436): inactive; Activity [30]: 112%; Activity [31]: 104%; Activity [32]: 102%
2 | CC(C)Nc1cc(-c2oc3ccccc3c(=O)c2-c2ccc(F)cc2)ccn1 | 105 | 105 | 84 | 82 | 96 | 100 | 99 | 97 | 95 | 95 | 102 | 106 | 95 | -3 | inactive | 98 | 95 | 91 | 104 | 58 | Activity [20]: -3%; Activity [21]: 100%; Activity [22]: 107%; Activity [23]: 102%; Activity [24]: 104%; Activity (Homo sapiens): 114%; Activity [25]: 100%; Activity [26]: 94%; Activity [27]: 106%; Activity [28]: 99%; Activity [29]: 107%; Activity (MDA-MB-436): inactive; Activity [30]: 104%; Activity [31]: 104%; Activity [32]: 109%
